One test concerns the target T1, AR protein (Homo sapiens, UniProt P10275, T878A).
T1 construct: host or cells: LNCaP FGC
T1 sequence (P10275 1-920 T878A): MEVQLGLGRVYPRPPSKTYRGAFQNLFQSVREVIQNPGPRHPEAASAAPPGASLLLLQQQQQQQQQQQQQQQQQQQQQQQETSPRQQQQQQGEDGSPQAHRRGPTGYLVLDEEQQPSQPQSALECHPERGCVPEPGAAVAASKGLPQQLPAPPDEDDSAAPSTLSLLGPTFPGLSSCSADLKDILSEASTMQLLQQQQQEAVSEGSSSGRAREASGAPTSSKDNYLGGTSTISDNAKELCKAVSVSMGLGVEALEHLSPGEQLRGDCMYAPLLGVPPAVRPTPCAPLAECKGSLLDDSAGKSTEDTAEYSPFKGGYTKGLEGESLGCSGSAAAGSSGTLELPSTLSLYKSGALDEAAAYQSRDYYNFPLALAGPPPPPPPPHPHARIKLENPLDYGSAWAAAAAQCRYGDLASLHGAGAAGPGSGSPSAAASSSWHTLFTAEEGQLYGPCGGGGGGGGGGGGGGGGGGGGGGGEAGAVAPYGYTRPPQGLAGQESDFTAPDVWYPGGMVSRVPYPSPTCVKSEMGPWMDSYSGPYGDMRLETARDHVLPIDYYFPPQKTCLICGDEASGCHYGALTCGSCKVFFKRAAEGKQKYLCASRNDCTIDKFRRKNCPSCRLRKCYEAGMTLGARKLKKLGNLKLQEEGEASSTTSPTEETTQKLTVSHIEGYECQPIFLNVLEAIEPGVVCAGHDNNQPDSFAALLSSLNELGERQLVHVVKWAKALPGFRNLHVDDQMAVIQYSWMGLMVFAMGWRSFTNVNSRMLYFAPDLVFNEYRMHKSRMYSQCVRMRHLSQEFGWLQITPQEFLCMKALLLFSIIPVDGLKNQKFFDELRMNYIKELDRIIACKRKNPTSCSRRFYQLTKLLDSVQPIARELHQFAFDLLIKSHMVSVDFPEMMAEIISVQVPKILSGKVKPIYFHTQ
The test can be described thus: AR protein degradation in LNCaP cells (Western blot). It counts as cell-based. To be noted: 8 hours; for percent AR protein degradation at a fixed concentration at 0.01 µM / Degradation of AR protein in LNCaP cells, 10 nM (%): 10 nM; for percent AR protein degradation at a fixed concentration at 0.1 µM / Degradation of AR protein in LNCaP cells, 100 nM (%): 100 nM. An outline of the steps:
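AR degradation rate derived from Western blot band densitometry, referenced to GAPDH, using total lysates of LNCaP cells treated 8 h with compound versus solvent control. Detection used infrared dual-color imaging after SDS-PAGE and PVDF transfer.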

Another test deals with VCaP cells. The test can be described thus: Inhibition of VCaP cell proliferation (WST-8). It is filed as cell-based. To be noted: Homo sapiens, 168 hours. In a few lines:
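Proliferation was read on day 9 as WST-8 absorbance at 450 nm after VCaP cells (15,000/well, DMEM/10% FBS, 37°C) were exposed from day 2 to compound at 9 points, 5-fold serial dilution, top final concentration 10 µM.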
In general terms: Tetrazolium assays rely on reduction of a dye to a coloured formazan, in cell work by metabolically active cells.

In the case of `C[C@H]1CC2(CCN(c3ccc(N4CCC(CN5CCC6(CC5)COc5ccc7c(c56)n(C)c(=O)n7C5CCC(=O)NC5=O)CC4)cc3)CC2)CN1c1ccc(C#N)c(Cl)c1` (stereo partly drawn) [A-P-26, 2-chloro-4-((3 S)-8-(4-(4-((3-((2,6-dioxopiperidin-3-yl))-1-methyl-2-oxo-2,3-dihydro-1H,7H-spiro[benzofuro[4,5-d]imidazole-8,4'-piperidin]-1'-yl)methyl)piperidin-1-yl)phenyl)-3-methyl-2,8-diazaspiro[4.5]decan-2-yl)benzonitrile], on AR protein, the percent AR protein degradation at a fixed concentration at 0.01 µM came out at 48% and the percent AR protein degradation at a fixed concentration at 0.1 µM came to 65%. The compound further showed a half-maximal inhibitory concentration (IC50) with VCaP cells of 0.034 µM.

`COc1cc(O[C@H]2C(C)(C)[C@H](NC(=O)c3ccc(N4CCC(N5CCC6(CC5)COc5c6ccc6c5n(C)c(=O)n6C5CCC(=O)NC5=O)CC4)cc3)C2(C)C)ccc1C#N` (stereo partly drawn) [A-P-29]: on AR protein, the percent AR protein degradation at a fixed concentration at 0.01 µM came to 6% and the percent AR protein degradation at a fixed concentration at 0.1 µM was -27%. The IC50 in the test on VCaP cells amounted to 0.019 µM.

For `COc1cc(O[C@H]2C(C)(C)[C@H](NC(=O)c3ccc(N4CCC(CN5CCC6(CCc7cc(C(=O)N[C@H]8CCC(=O)NC8=O)c(F)cc7O6)CC5)CC4)cc3)C2(C)C)ccc1C#N` [A-P-30], at AR protein, the “Degradation of AR protein in LNCaP cells, 10 nM (%)” value (from here on “Degradation … 10 nM (%)”) stood at 41% and the “Degradation of AR protein in LNCaP cells, 100 nM (%)” value (from here on “Degradation … 100 nM (%)”) is recorded as 78%. In the test on VCaP cells, this compound displayed a half-inhibitory concentration (IC50) of 1 µM.

`COc1cc(O[C@H]2C(C)(C)[C@H](NC(=O)c3ccc(N4CCC(C)(CN5CCC6(CCc7cc(C(=O)N[C@H]8CCC(=O)NC8=O)c(F)cc7O6)CC5)CC4)cc3)C2(C)C)ccc1C#N` [A-P-31, 1'-((1-((4-((1r,3r)-3-(4-cyano-3-methoxyphenoxy)-2,2,4,4-tetramethylcyclobutyl)carbamoyl)phenyl)-4-methylpiperidin-4-yl)methyl)-N-((S)-2,6-dioxopiperidin-3-yl)-7-fluorospiro[2,4'-piperidin]-6-carboxamide]: at AR protein, the percent AR protein degradation at a fixed concentration at 0.01 µM amounted to 47% and the percent AR protein degradation at a fixed concentration at 0.1 µM came out at 71%. Besides, the IC50 in the test on VCaP cells was determined as 3.17 µM.

Turning to `COc1cc(O[C@H]2C(C)(C)[C@H](NC(=O)c3ccc(N4CCC(CN5CCC6(CCc7cc(C(=O)N[C@H]8CCC(=O)NC8=O)c(F)cc7O6)CC5)CC4)nc3)C2(C)C)ccc1C#N` [A-P-33, 1'-((1-(5-(((1R,3R)-3-(4-cyano-3-methoxyphenoxy)-2,2,4,4-tetramethylcyclobutyl)carbamoyl)pyridin-2-yl)piperidin-4-yl)methyl)-N-((S)-2,6-dioxopiperidin-3-yl)-7-fluorospiro[chroman-2,4'-piperidin]-6-carboxamide], on AR protein, the “Degradation … 10 nM (%)” value is on record as 84% and the “Degradation … 100 nM (%)” value came out at 85%. Also, the midpoint of inhibition in the test with VCaP cells, the IC50, lay at 0.45 µM.

As to `COc1cc(O[C@H]2C(C)(C)[C@H](NC(=O)c3ccc(N4CCC(CN5CCC6(CCc7cc(C(=O)N[C@H]8CCC(=O)NC8=O)c(F)cc7O6)CC5)CC4)nn3)C2(C)C)ccc1C#N` [A-P-34, 1'-((1-(6-(((1R,3R)-3-(4-cyano-3-methoxyphenoxy)-2,2,4,4-tetramethylcyclobutyl)carbamoyl)pyridazin-3-yl)piperidin-4-yl)methyl)-N-((S)-2,6-dioxopiperidin-3-yl)-7-fluorospiro[chroman-2,4'-piperidin]-6-carboxamide], on AR protein, the “Degradation … 10 nM (%)” value is listed as 72% and the “Degradation … 100 nM (%)” value is 85%. For the same compound, it took 0.00029 µM to reach half-maximal inhibition with VCaP cells (IC50).

For the compound `C[C@H]1CC2(CCN(c3ccc(C(=O)N4CCC(CN5CCC6(CCc7cc(C(=O)N[C@H]8CCC(=O)NC8=O)c(F)cc7O6)CC5)CC4)cc3)CC2)CN1c1ccc(C#N)c(Cl)c1` [A-P-35, 1'-((1-(4-((S)-2-(3-chloro-4-cyanophenyl)-3-methyl-2,8-diazaspiro[4.5]decan-8-yl)benzoyl)piperidin-4-yl)methyl)-N-((S)-2,6-dioxopiperidin-3-yl)-7-fluorospiro[chroman-2,4'-piperidin]-6-carboxamide], at AR protein, the percent AR protein degradation at a fixed concentration at 0.01 µM came out at 61% and the percent AR protein degradation at a fixed concentration at 0.1 µM was 70%. The compound also yielded an IC50 in the test with VCaP cells of 0.004 µM.

On to `COc1cc(O[C@H]2C(C)(C)[C@H](NC(=O)c3ccc(N4CCC(CN5CCC6(CCc7cc(C(=O)N[C@H]8CCC(=O)NC8=O)c(F)cc7O6)CC5)(OC)CC4)cc3)C2(C)C)ccc1C#N` [A-P-36], for which, at AR protein, the “Degradation … 10 nM (%)” value turned out to be 52% and the “Degradation … 100 nM (%)” value was found to be 70%. Also, the IC50 in the test with VCaP cells was 1.66 µM.

As for `COc1cc(O[C@H]2C(C)(C)[C@H](NC(=O)c3ccc(N4CCC5(CC4)CC(N4CCC6(CCc7cc(C(=O)N[C@H]8CCC(=O)NC8=O)c(F)cc7O6)CC4)C5)cc3)C2(C)C)ccc1C#N` [A-P-37, 1'-(7-(4-(((1R,3R)-3-(4-cyano-3-methoxyphenoxy)-2,2,4,4-tetramethylcyclobutyl)carbamoyl)phenyl)-7-azaspiro[3.5]nonan-2-yl)-N-((S)-2,6-dioxopiperidin-3-yl)-7-fluorospiro[chroman-2,4'-piperidin]-6-carboxamide], at AR protein, the “Degradation … 10 nM (%)” value was found to be 10% and the “Degradation … 100 nM (%)” value is 63%. In addition, the IC50 in the test with VCaP cells was 2.89 µM.

For the compound `COc1cc(O[C@H]2C(C)(C)[C@H](NC(=O)c3ccc(N4CCC(C)(CN5CCC6(CCc7cc(F)c(C(=O)N[C@H]8CCC(=O)NC8=O)cc7O6)CC5)CC4)cc3)C2(C)C)ccc1C#N` [A-P-38, 1-(1-(4-((1R,3R)-3-((4-cyano-3-methoxyphenoxy)-2,2,4,4-tetramethylcyclobutyl)carbamoyl)phenyl)-4-methylpiperidin-4-methyl)-N-((S)-2,6-dioxopiperidin-3-yl)-6-fluorospiro[chroman-2,4'-piperidin]-7-carboxamide], at AR protein, the “Degradation … 10 nM (%)” value is -2% and the “Degradation … 100 nM (%)” value turned out to be 0%. In addition, the IC50 in the test on VCaP cells was more than 10 µM.

`COc1cc(O[C@H]2C(C)(C)[C@H](NC(=O)c3ccc(N4CCC(CN5CCC6(CCc7cc(F)c(C(=O)N[C@H]8CCC(=O)NC8=O)cc7O6)CC5)CC4)cc3)C2(C)C)ccc1C#N` [A-P-39]: on AR protein, the “Degradation … 10 nM (%)” value is given as 22% and the “Degradation … 100 nM (%)” value is recorded as 39%. The IC50 with VCaP cells is more than 10 µM.

On to `COc1cc(O[C@H]2C(C)(C)[C@H](NC(=O)c3ccc(N4CCC(CN5CCC6(CCc7cc(F)c(C(=O)N[C@H]8CCC(=O)NC8=O)cc7O6)CC5)(OC)CC4)cc3)C2(C)C)ccc1C#N` [A-P-40], for which, on AR protein, the “Degradation … 10 nM (%)” value amounted to 26% and the “Degradation … 100 nM (%)” value came to 46%. Also, the half-inhibitory concentration (IC50) in the test with VCaP cells was more than 10 µM.

In the case of `COc1cc(O[C@H]2C(C)(C)[C@H](NC(=O)c3ccc(N4CCC(F)(CN5CCC6(CCc7cc(F)c(C(=O)N[C@H]8CCC(=O)NC8=O)cc7O6)CC5)CC4)cc3)C2(C)C)ccc1C#N` [A-P-41], on AR protein, the “Degradation … 10 nM (%)” value is on record as -37% and the “Degradation … 100 nM (%)” value is given as -31%. In the test on VCaP cells, the IC50 was more than 10 µM.

As a reminder, the IC50 is the midpoint of a concentration-inhibition curve. Higher therefore signals weaker potency in that assay.

These data come from patent EP4722219A1 (Gan & Lee Pharmaceuticals Co., Ltd., priority 2023, dated 2024).
